{"source": "patent US20170106110A1", "about": "“ALLERGEN REDUCING COMPOSITION, SPRAY AGENT INCLUDING THE SAME AND SURFACE TREATMENT AGENT INCLUDING THE SAME, ALLERGEN REDUCING METHOD, ALLERGEN REDUCING TEXTILE STRUCTURE AND ALLERGEN REDUCING ARCHITECTURAL INTERIOR MATERIAL” (SC ENVIRONMENTAL SCIENCE CO., LTD., priority 2014, published 2017)", "origin": "cited, not measured here", "conditions": "rat"}
{"substance": "zinc gluconate", "values": [{"measurement": "value of acute oral toxicity", "result": "exceeds 5,000 mg/kg"}]}
